Data on 2 molecules can be found in US9000033B2, “Composition for improving skin condition and appearance” (Arch Personal Care Products, L.P., priority 2008, dated 2015).

Assay [1] has as its system COL1A1 (collagen 1A1 gene). The assay can be described thus: Human gene microarray, Type 1A1 Collagen gene expression in normal human dermal fibroblasts. The assay is classed as cell-based. To be noted: for expression levels of collagen 1A1 gene: an appropriate amount. The method, then:
(§1) Normal human dermal fibroblasts were grown in culture flasks until confluent using appropriate culture conditions. […] A separate flask of cells was treated with culture media alone and acted as an untreated control. After applying the test material the cells the cells were incubated for 24 hours at 37±2° C. and 5±1% CO2. At the end of the incubation period the culture media was removed via aspiration and the cells were washed once with cold phosphate buffered saline. After removing the wash the cells they were lysed by adding 700 μl of guanidinium thiocyanate lysis solution. The cell lysate was stored at −75° C. until the RNA extraction process could be completed (see below).
(§2) To the cell lysates prepared above, an equal volume of 64% ethanol was added and the tubes were vortexed. After combining, up to 700 μl of the mixture was transferred to a glass fiber filter cartridge, and the cartridge was loaded into a 1.5 ml collection tube and the cartridge was centrifuged for 1 minute at 14,000 RPM. The flow through was discarded and any remaining mixture was loaded into the filter cartridge and the centrifugation process was repeated until all of the mixture had been processed. The filter was then washed to remove any residual cellular debris from the RNA bound to the glass fibers by subsequently applying 700 μl of wash solution 1 (1 time) and 500 μl of wash solution 2 (2 times) to the filter cartridge and centrifuging at 14,000 RPM for 1 minute to pass each wash through the cartridge. After each wash the flowthrough was discarded. After the final wash one final spin was performed without wash solution to remove any residual wash solution in the filter cartridge. The RNA bound to the glass fibers within the cartridge was eluted by applying 30 μl of Tris-EDTA buffer (10 mM Tris-HCl, 1 mM EDTA, preheated to 70-80° C.) to the cartridge and centrifuging the cartridge in a new collection tube at 14,000 RPM for one minute. The elution process was repeated with an additional 30 μl of preheated TE buffer. After the RNA was eluted its concentration was quantified using a Ribogreen assay.
(§3) mRNA Amplification (Ambion MessageAmnp aRNA kit) First Strand cDNA Synthesis: To start the first strand synthesis, 5 μg of total RNA for each sample was added to 600 μl PCR tubes and the total volume of liquid in the tube was adjusted to 12 μl with DEPC H2O. To each tube, 1 μl of T7 Oligo(dT) primer was added and the tube was incubated at 70±2° C. for 10 minutes to denature the RNA and then placed on ice to allow the primer to anneal to the poly A ends of the mRNA. After cooling 2 μl of 10× first strand buffer, 1 μl of RNAse inhibitor and 4 μl of dNTP Mix were added to each tube, and each tube was placed at 42° C. 1 μl of Reverse Transcriptase was added and the tubes were heated and maintained at 42±2° C. for 2 hours. […]
(§4) Second Strand Synthesis and cDNA Purification: For the synthesis of the second strand of cDNA the following items were added to the tubes above (in this order): 63 μl DEPC H2O, 10 μl 10× second strand buffer, 4 μl dNTP mix, 2 μl DNA Polymerase and 1 μl of RNAse H. The tube was mixed and then incubated at 16±2° C. for 2 hours. Towards the end of the 2 hour incubation a sufficient quantity of DEPC H2O was warmed to 50±2° C. and a cDNA purification filter cartridge was equilibrated with 50 μl of cDNA binding buffer (one cartridge per sample) for at least 5 minutes. […]

Assay [2] relates to ELN (elastin gene). The assay can be described thus: Human gene microarray, Elastin gene expression in normal human dermal fibroblasts. The assay is classed as cell-based. To be noted: for expression levels of elastin gene: an appropriate amount. The method, then: as §1, §2, §3, §4
Where [3] appears, read: concentration from 0.0001 to 0.05%.
Where [4] appears, read: normal human dermal fibroblasts, 0.05%.
Where [5] appears, read: normal human dermal fibroblasts, 0.05% pomiferin, 24 hours, fluorescence intensity, Cy5 (treated) channel.

SMILES strings stand for the structures.

As for `CC(C)=CCc1c2c(c3occ(-c4ccc(O)cc4)c(=O)c3c1O)C=CC(C)(C)O2` [osajin], the “expression levels of collagen 1A1 gene” value in assay [1] was “significantly increase”. In addition, the “expression levels of elastin gene” value in assay [2] is on record as “significantly increase”.

Take `CC(C)=CCc1c2c(c3occ(-c4ccc(O)c(O)c4)c(=O)c3c1O)C=CC(C)(C)O2` [pomiferin]: in assay [1], the “expression levels of collagen 1A1 gene” value is on record as “significantly increase”. The “increasing collagen 1A1 gene expression” value in assay [1] (setting [3]) is “equally effective”. For the same molecule, the “collagen 1A1 gene expression compared to untreated cells” value in assay [1] (setting [4]) was “statistically significant increase”. Moreover, the “F635 Median, COL1A1” value in assay [1] (setting [5]) turned out to be 38576. In addition, in assay [2], the “expression levels of elastin gene” value is “significantly increase”. The “increasing elastin gene expression” value in assay [2] (setting [3]) is recorded as “equally effective”. Further, in assay [2] (setting [4]), the “elastin gene expression compared to untreated cells” value is listed as “statistically significant increase”. Besides, the “F635 Median, ELN” value in assay [2] (setting [5]) was 3010.
